{"source": "paper PMC9736855", "about": "“Discovery of 3-Amino-1H-pyrazole-Based Kinase Inhibitors to Illuminate the Understudied PCTAIRE Family” (International Journal of Molecular Sciences, 2022)", "experiment_in_all_cases": "NanoBRET", "assay_type_in_all_cases": "cell-based", "key": {"CDK3/Cyclin E2": {"target": "T1, CDK3/Cyclin E2 (Homo sapiens, UniProt Q00526)", "T1 construct": "Full-length kinases were obtained as plasmids cloned in frame with a terminal NanoLuc-fusion; CCNE2: 'Promega', no number; host or cells: HEK293T", "T1 sequence (Q00526 whole entry, the tested form may be a part)": "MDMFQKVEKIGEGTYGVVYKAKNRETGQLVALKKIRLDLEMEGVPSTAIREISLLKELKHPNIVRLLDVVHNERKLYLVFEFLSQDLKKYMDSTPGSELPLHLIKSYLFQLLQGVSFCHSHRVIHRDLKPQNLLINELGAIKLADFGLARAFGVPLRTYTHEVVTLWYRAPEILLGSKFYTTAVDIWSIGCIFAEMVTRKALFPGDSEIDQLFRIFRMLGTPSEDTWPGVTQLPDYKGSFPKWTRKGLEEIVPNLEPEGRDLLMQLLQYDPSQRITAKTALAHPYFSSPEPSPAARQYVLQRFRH", "T1 sequence (O96020 whole entry partner, the tested form may be a part)": "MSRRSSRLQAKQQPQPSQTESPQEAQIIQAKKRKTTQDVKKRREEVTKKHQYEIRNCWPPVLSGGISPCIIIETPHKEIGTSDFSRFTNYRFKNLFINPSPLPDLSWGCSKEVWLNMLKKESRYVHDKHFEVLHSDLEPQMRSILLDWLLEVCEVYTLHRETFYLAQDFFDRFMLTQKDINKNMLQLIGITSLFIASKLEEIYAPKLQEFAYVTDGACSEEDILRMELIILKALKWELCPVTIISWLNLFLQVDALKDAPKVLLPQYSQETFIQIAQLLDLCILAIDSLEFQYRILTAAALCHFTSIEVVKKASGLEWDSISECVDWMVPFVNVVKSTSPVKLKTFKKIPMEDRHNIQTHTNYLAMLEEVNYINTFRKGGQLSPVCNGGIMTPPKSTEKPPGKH", "conditions": "read-out: NanoBRET EC50 ± SEM CDK3/Cyclin E2", "experimental": "(§1) The assay was performed as described previously. In brief: Full-length kinases were obtained as plasmids cloned in frame with a terminal NanoLuc-fusion (Promega, Madison, WI, USA), as specified in table (Table S6). Plasmids were transfected into HEK293T cells using FuGENE HD (Promega, E2312) and proteins were allowed to express for 20h. Serially diluted inhibitor and NanoBRET Kinase Tracer (Promega) at a concentration determined previously as the KD,app (Table S5) were pipetted into white 384-well plates (Greiner 781207) using an Echo acoustic dispenser (Labcyte, San Jose, CA, USA). The corresponding protein-transfected cells were added and reseeded at a density of 2.5 × 10^5 cells/mL after trypsinization and resuspending in Opti-MEM without phenol red (Life Technologies, Carlsbad, CA, USA). The system was allowed to equilibrate for 2 h at 37 °C/5% CO2 prior to BRET measurements. To measure BRET, NanoBRET NanoGlo Substrate + Extracellular NanoLuc Inhibitor (Promega, N2540) was added as per the manufacturer’s protocol, and filtered luminescence was measured on a PHERAstar plate reader (BMG Labtech, Ortenberg, Germany) equipped with a luminescence filter pair (450 nm BP filter (donor) and 610 nm LP filter (acceptor)). Competitive displacement data were then graphed using GraphPad Prism 9 software using a normalized 3-parameter curve fit with the following equation: Y = 100/(1 + 10^(X–LogEC50))."}, "CDK11A/Cyclin K": {"target": "T2, CDK11A/Cyclin K (Homo sapiens, UniProt Q9UQ88)", "T2 sequence (Q9UQ88 1-783)": "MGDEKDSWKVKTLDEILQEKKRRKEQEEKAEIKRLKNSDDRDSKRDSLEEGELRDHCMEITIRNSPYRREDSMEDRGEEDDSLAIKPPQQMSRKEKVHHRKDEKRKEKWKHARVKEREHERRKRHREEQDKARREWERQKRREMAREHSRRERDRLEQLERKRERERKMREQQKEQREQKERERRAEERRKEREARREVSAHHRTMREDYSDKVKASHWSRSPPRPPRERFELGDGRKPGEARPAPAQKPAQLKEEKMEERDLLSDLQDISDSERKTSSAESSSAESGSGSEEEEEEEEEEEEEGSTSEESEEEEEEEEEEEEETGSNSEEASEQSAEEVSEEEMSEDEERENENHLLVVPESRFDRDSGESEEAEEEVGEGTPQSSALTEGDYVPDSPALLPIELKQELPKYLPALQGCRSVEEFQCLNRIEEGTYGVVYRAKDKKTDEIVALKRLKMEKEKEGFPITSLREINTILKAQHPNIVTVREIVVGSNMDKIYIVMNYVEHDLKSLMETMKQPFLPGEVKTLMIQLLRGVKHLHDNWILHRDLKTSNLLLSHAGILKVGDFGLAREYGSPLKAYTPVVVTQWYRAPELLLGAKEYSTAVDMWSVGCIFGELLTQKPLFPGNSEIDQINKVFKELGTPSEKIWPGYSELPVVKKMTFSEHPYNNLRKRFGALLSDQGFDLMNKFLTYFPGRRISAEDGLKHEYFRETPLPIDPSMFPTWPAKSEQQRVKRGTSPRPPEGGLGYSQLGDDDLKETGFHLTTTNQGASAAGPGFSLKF", "conditions": "read-out: NanoBRET EC50 ± SEM CDK11A/Cyclin K", "experimental": "as §1"}, "CDK9/Cyclin T1": {"target": "T3, CDK9/Cyclin T1 (Homo sapiens, UniProt P50750)", "T3 construct": "Full-length kinases were obtained as plasmids cloned in frame with a terminal NanoLuc-fusion; CS1810C177 (CCNT1); host or cells: HEK293T", "T3 sequence (P50750 whole entry, the tested form may be a part)": "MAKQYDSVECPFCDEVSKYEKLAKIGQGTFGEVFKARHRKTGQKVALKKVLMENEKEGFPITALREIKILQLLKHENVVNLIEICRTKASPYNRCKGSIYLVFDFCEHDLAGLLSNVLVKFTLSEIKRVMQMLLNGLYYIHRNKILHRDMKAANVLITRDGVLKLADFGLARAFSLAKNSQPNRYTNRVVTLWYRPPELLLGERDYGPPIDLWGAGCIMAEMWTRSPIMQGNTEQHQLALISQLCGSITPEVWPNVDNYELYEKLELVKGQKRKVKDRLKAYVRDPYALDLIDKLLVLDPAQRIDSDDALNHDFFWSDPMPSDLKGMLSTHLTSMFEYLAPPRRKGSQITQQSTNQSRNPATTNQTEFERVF", "T3 sequence (O60563 whole entry partner, the tested form may be a part)": "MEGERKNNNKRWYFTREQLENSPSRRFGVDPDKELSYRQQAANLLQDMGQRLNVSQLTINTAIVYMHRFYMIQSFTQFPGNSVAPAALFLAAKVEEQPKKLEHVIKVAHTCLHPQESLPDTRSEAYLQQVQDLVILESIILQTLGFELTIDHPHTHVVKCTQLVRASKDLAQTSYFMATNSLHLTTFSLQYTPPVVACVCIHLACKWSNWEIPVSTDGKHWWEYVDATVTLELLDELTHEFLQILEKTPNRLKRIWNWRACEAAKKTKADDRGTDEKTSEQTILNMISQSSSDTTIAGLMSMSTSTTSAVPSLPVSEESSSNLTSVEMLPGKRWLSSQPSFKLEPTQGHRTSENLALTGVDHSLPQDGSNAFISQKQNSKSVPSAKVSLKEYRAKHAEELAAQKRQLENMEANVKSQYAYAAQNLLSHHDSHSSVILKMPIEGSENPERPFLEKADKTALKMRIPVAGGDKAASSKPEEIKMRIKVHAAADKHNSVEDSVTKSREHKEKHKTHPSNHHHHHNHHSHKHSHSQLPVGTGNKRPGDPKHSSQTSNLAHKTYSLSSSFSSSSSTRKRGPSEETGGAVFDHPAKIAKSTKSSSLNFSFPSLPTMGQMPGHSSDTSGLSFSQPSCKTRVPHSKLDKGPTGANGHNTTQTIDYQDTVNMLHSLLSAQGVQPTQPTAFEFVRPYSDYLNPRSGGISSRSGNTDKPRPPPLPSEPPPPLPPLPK", "conditions": "read-out: NanoBRET EC50 ± SEM CDK9/Cyclin T1", "experimental": "as §1"}, "CDK2/Cyclin E1": {"target": "T4, CDK2/Cyclin E1 (Homo sapiens, UniProt P24941)", "T4 construct": "Full-length kinases were obtained as plasmids cloned in frame with a terminal NanoLuc-fusion; CS1810C171 (CCNE1); host or cells: HEK293T", "conditions": "read-out: NanoBRET EC50 ± SEM CDK2/Cyclin E1", "experimental": "as §1"}, "CDK6/Cyclin D3": {"target": "T5, CDK6/Cyclin D3 (Homo sapiens, UniProt Q00534)", "T5 construct": "Full-length kinases were obtained as plasmids cloned in frame with a terminal NanoLuc-fusion; CS1810C87 (CCND3); host or cells: HEK293T", "T5 sequence (Q00534 whole entry, the tested form may be a part)": "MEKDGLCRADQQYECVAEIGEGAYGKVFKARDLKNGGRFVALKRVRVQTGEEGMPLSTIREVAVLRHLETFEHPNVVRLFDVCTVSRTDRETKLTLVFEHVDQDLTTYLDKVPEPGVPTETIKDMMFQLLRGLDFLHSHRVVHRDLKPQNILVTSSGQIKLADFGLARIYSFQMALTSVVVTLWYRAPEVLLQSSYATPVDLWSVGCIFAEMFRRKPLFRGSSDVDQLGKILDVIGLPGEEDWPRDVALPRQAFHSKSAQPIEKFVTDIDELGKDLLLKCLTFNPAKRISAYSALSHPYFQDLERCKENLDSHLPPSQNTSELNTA", "T5 sequence (P30281 whole entry partner, the tested form may be a part)": "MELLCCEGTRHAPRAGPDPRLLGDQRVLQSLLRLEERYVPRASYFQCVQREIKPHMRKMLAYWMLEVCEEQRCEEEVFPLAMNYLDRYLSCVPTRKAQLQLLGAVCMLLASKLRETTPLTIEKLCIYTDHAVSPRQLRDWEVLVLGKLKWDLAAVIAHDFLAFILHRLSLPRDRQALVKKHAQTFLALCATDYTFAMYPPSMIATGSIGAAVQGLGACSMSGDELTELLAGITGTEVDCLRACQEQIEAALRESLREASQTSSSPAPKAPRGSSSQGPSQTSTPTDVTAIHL", "conditions": "read-out: NanoBRET EC50 ± SEM CDK6/Cyclin D3", "experimental": "as §1"}, "CDK17/Cyclin Y": {"target": "CDK17/Cyclin Y (Homo sapiens, UniProt Q00537)", "sequence (Q00537 whole entry)": "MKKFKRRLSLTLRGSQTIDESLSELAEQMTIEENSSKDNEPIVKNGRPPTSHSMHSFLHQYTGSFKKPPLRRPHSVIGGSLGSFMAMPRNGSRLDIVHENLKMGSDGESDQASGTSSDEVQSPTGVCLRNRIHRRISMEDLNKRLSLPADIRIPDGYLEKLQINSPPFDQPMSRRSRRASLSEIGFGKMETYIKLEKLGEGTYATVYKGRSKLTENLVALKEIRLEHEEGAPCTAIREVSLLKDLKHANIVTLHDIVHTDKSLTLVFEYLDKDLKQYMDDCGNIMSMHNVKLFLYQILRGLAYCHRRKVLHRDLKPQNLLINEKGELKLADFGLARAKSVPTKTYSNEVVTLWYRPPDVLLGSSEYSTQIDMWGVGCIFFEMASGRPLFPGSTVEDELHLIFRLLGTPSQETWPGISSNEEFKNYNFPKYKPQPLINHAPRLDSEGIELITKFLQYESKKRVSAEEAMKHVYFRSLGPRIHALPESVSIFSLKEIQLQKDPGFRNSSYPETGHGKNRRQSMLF", "sequence (Q8ND76 2-341 partner limits assumed)": "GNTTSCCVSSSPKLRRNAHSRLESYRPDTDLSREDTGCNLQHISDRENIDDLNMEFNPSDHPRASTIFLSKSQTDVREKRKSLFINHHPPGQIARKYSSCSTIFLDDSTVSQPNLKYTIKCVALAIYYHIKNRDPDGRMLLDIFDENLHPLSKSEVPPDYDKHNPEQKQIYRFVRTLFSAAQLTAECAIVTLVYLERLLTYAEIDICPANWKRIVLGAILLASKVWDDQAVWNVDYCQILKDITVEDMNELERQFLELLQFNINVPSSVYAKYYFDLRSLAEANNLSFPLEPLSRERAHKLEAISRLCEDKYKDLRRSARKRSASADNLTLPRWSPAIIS", "conditions": "read-out: NanoBRET EC50 ± SEM CDK17/Cyclin Y", "experimental": "as §1"}, "CDK2/Cyclin A1": {"target": "T6, CDK2/Cyclin A1 (Homo sapiens, UniProt P24941)", "T6 construct": "Full-length kinases were obtained as plasmids cloned in frame with a terminal NanoLuc-fusion; CS1810C172 (CCNA1); host or cells: HEK293T", "conditions": "read-out: NanoBRET EC50 ± SEM CDK2/Cyclin A1", "experimental": "as §1"}, "CDK11A/Cyclin L2": {"target": "T7, CDK11A/Cyclin L2 (Homo sapiens, UniProt Q9UQ88)", "T7 sequence (Q9UQ88 1-783)": "T2 sequence (Q9UQ88 1-783)", "T7 sequence (Q96S94 1-520 partner)": "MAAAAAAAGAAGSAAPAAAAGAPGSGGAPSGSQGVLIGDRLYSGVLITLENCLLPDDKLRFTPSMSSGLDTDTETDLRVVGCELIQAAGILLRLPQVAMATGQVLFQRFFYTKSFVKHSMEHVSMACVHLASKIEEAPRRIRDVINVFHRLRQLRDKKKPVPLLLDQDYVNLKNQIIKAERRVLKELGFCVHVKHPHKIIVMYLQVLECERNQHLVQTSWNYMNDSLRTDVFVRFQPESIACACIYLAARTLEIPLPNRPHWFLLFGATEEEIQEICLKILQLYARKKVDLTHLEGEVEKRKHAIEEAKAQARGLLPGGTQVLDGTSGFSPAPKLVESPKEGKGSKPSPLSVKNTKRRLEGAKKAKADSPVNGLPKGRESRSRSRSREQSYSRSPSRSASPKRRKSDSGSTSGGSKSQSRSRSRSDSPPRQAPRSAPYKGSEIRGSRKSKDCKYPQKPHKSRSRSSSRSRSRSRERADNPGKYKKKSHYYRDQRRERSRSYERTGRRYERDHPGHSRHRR", "conditions": "read-out: NanoBRET EC50 ± SEM CDK11A/Cyclin L2", "experimental": "as §1"}, "CDK14/Cyclin Y": {"target": "T8, CDK14/Cyclin Y (Homo sapiens, UniProt O94921)", "T8 construct": "Full-length kinases were obtained as plasmids cloned in frame with a terminal NanoLuc-fusion; CS1810C178 (CCNY); host or cells: HEK293T", "T8 sequence (O94921 whole entry, the tested form may be a part)": "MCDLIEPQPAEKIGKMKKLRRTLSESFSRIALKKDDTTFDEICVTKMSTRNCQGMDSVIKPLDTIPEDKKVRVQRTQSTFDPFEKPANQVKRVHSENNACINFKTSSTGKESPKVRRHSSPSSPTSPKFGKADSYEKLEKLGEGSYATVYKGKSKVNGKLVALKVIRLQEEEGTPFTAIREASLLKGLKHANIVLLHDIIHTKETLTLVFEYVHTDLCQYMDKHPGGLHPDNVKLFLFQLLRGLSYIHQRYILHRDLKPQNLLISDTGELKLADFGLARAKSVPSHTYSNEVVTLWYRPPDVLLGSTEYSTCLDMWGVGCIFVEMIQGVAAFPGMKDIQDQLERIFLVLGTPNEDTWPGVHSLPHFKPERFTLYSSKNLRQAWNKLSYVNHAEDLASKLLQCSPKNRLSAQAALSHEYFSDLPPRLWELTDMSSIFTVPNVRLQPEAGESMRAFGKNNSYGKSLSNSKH", "T8 sequence (Q8ND76 2-341 partner limits assumed)": "as the sequence (Q8ND76 2-341 partner limits assumed) above", "conditions": "read-out: NanoBRET EC50 ± SEM CDK14/Cyclin Y", "experimental": "as §1"}}, "data": [{"smiles": "CC(C)OC(=O)c1cc(Nc2ccnc(NCc3ccc(NC(=O)OC(C)(C)C)cc3)n2)n[nH]1", "note": "[42d, isopropyl 3-((2-((4-((tert-butoxycarbonyl)amino)benzyl)amino)pyrimidin-4-yl)amino)-1H-pyrazole-5-carboxylate]", "values": [{"measurement": "EC50", "setting": "CDK3/Cyclin E2", "value": "26900 ± 13400", "unit": "nM"}, {"measurement": "EC50", "setting": "CDK11A/Cyclin K", "value": "3100 ± 1350", "unit": "nM"}, {"measurement": "EC50", "setting": "CDK9/Cyclin T1", "value": "408 ± 140", "unit": "nM"}, {"measurement": "EC50", "setting": "CDK2/Cyclin E1", "value": "2600 ± 914", "unit": "nM"}, {"measurement": "EC50", "setting": "CDK6/Cyclin D3", "value": "2080 ± 935", "unit": "nM"}, {"measurement": "EC50", "setting": "CDK17/Cyclin Y", "value": "33.7 ± 2.5", "unit": "nM"}, {"measurement": "EC50", "setting": "CDK2/Cyclin A1", "value": "32500 ± 13900", "unit": "nM"}, {"measurement": "EC50", "setting": "CDK11A/Cyclin L2", "value": "2090 ± 599", "unit": "nM"}, {"measurement": "EC50", "setting": "CDK14/Cyclin Y", "value": "88.2 ± 48.8", "unit": "nM"}]}, {"smiles": "N#CCc1ccc(Nc2nccc(Nc3cc(C4CC4)[nH]n3)n2)cc1", "note": "[compound 1, reference compound]", "values": [{"measurement": "EC50", "setting": "CDK3/Cyclin E2", "value": "38.4 ± 30.4", "unit": "nM"}, {"measurement": "EC50", "setting": "CDK11A/Cyclin K", "value": "999 ± 476", "unit": "nM"}, {"measurement": "EC50", "setting": "CDK9/Cyclin T1", "value": "86.5 ± 10.9", "unit": "nM"}, {"measurement": "EC50", "setting": "CDK2/Cyclin E1", "value": "26.7 ± 6.3", "unit": "nM"}, {"measurement": "EC50", "setting": "CDK6/Cyclin D3", "value": "45.3 ± 35.6", "unit": "nM"}, {"measurement": "EC50", "setting": "CDK17/Cyclin Y", "value": "9.9 ± 1.2", "unit": "nM"}, {"measurement": "EC50", "setting": "CDK2/Cyclin A1", "value": "60 ± 41.1", "unit": "nM"}, {"measurement": "EC50", "setting": "CDK11A/Cyclin L2", "value": "760 ± 460", "unit": "nM"}, {"measurement": "EC50", "setting": "CDK14/Cyclin Y", "value": "33.7 ± 8.2", "unit": "nM"}]}, {"smiles": "CC(C)(C)OC(=O)Nc1ccc(CNc2nccc(Nc3cc(C(=O)OC(C)(C)C)[nH]n3)n2)cc1", "note": "[43d, tert-butyl 3-((2-((4-((tert-butoxycarbonyl)amino)benzyl)amino)pyrimidin-4-yl)amino)-1H-pyrazole-5-carboxylate]", "values": [{"measurement": "EC50", "setting": "CDK3/Cyclin E2", "value": "16100 ± 7620", "unit": "nM"}, {"measurement": "EC50", "setting": "CDK11A/Cyclin K", "value": "7980 ± 3740", "unit": "nM"}, {"measurement": "EC50", "setting": "CDK9/Cyclin T1", "value": "805 ± 240", "unit": "nM"}, {"measurement": "EC50", "setting": "CDK2/Cyclin E1", "value": "1860 ± 582", "unit": "nM"}, {"measurement": "EC50", "setting": "CDK6/Cyclin D3", "value": "2910 ± 1570", "unit": "nM"}, {"measurement": "EC50", "setting": "CDK17/Cyclin Y", "value": 21.2, "unit": "nM"}, {"measurement": "EC50", "setting": "CDK2/Cyclin A1", "value": "1670 ± 420", "unit": "nM"}, {"measurement": "EC50", "setting": "CDK11A/Cyclin L2", "value": "3460 ± 1840", "unit": "nM"}, {"measurement": "EC50", "setting": "CDK14/Cyclin Y", "value": 72.1, "unit": "nM"}]}, {"smiles": "COC(=O)c1cc(Nc2ccnc(NCc3ccc(NC(=O)OC(C)(C)C)cc3)n2)[nH]n1", "note": "[21i, methyl 5-((2-((4-((tert-butoxycarbonyl)amino)benzyl)amino)pyrimidin-4-yl)amino)-1H-pyrazole-3-carboxylate]", "values": [{"measurement": "EC50", "setting": "CDK3/Cyclin E2", "value": "38800 ± 4640", "unit": "nM"}, {"measurement": "EC50", "setting": "CDK11A/Cyclin K", "value": "21100 ± 11000", "unit": "nM"}, {"measurement": "EC50", "setting": "CDK9/Cyclin T1", "value": "6870 ± 2190", "unit": "nM"}, {"measurement": "EC50", "setting": "CDK2/Cyclin E1", "value": "20900 ± 5690", "unit": "nM"}, {"measurement": "EC50", "setting": "CDK6/Cyclin D3", "value": "6550 ± 3480", "unit": "nM"}, {"measurement": "EC50", "setting": "CDK17/Cyclin Y", "value": 673, "unit": "nM"}, {"measurement": "EC50", "setting": "CDK2/Cyclin A1", "value": "36700 ± 3320", "unit": "nM"}, {"measurement": "EC50", "setting": "CDK11A/Cyclin L2", "value": "20500 ± 11800", "unit": "nM"}, {"measurement": "EC50", "setting": "CDK14/Cyclin Y", "value": "1370 ± 374", "unit": "nM"}]}]}
